Results on 54 molecules are retold here after patent US10919896B2, “Preparation and uses of pyrimidinone derivatives” (Cancer Research Technology Limited, priority 2016, dated 2021).

The target of the test is Cdc7/ASK (Homo sapiens, UniProt O00311). Kind of test: Cdc7 Biochemical Assay Method 1: 384 well ELISA, whole protein substrate MCM2, antibody against Phospho MCM2 (S53). On the set-up: purchased. To be noted: 2 μM ATP, read-out: Biochemical Method 1 (pIC50) (converted). As to the method:
This protocol describes a method for assaying Cdc7/ASK for activity. The assay is a 384 well ELISA assay, utilising a whole protein substrate (MCM2) and an antibody against Phospho MCM2 (S53). This site is thought to be specific to Cdc7/ASK phosphorylation and the assay has been validated using knockout mutants. Reagents • TBS: 25 mM Tris pH 7.2, 150 mM NaCl. (Dilute 10× stock by 1:10). • Wash Buffer: TBS+0.05% Tween 20. (Add 100 mL 1 M Tris pH 7.2, 120 mL 5 M NaCl and 2 mL 100% Tween 20 per 4 L). • Kinase Reaction Buffer: 50 mM Tris-HCl pH 8.5, 10 mM MgCl2, 1 mM DTT. (Dilute 10× stock by 1:10 and add 100 μL 1M DTT per 100 mL prior to assay). • Diethanolamine Buffer: 1 M diethanolamine pH 9.8, 0.5 mM MgCl2. • Stop Solution: 1 M NaOH. • MCM2 was expressed and purified in-house and used in the assay at a final assay concentration of 436 ng/well. • Cdc7/ASK is purchased from commercial suppliers and used in the assay at a final assay concentration of 37.97 ng/well or 20.63 nM. • ATP used as a final assay concentration of 2 μM. • Primary Antibody: Rabbit anti-Phospho MCM2 (S53 Antibody (BL3353)), is purchased from commercial suppliers at 0.2 mg/mL and used at a final assay concentration by diluting 1:800 in TBS. • Secondary Antibody: Anti-Rabbit/AP Antibody is supplied is purchased from commercial suppliers at 1 mg/mL and used at a final assay concentration by diluting 1:2000 in TBS. • Development Reagent: Dissolve one 20 mg PNPP tablet (Sigma, product […], 20 mg per tablet) per 20 mL diethanolamine Buffer (or one 5 mg PNPP tablet per 5 mL diethanolamine buffer). Cover in foil and leave shaking on a roller shaker at room temperature for up to an hour to dissolve. Methods • 1. Add 20 μL 1× working stock of Substrate (MCM2) in TBS to all wells of a clear, 384 well, Nickel-chelate microplate to give a final concentration of […]. Incubate at room temperature for at least 1 hour. Plates can be pre-coated for 1 hour and stored at 4° C. for up to 8 days. • 2. Wash with TBS+0.05% Tween 20 (80 μL×3). • 3. Add 2 μL 10× test compounds, including the positive control, in 40% DMSO/water to 'test' wells. Add 2 μL 40% DMSO/water to 'control' and 'blank' wells. The final DMSO concentration will be 4%. • 4. Add 13 μL CDC7/ASK Kinase (1.5× stock) in Kinase Reaction Buffer to 'test' and 'control' wells to give a final concentration of […]. Add 13 μL Kinase Reaction Buffer to 'blank' wells. • 5. Add 5 μL ATP (4× stock) in Kinase Reaction Buffer to all wells to give a final concentration of 2 μM. • 6. Incubate at room temperature for 90 minutes. • 7. Wash with TBS+0.05% Tween 20 (80 μL×3). • 8. Add 20 μL 1× working solution of Primary Antibody in TBS to all wells. Incubate at room temperature for 30 minutes. • 9. Wash with TBS+0.05% Tween 20 (80 μL×3). • 10. Add 20 μL 1× working solution of Secondary Antibody in TBS to all wells. Incubate at room temperature for 30 minutes. • 11. Wash with TBS+0.05% Tween 20 (80 μL×3). • 12. Add 20 μL 1× Development Reagent to all wells. • 13. Incubate at room temperature for 2 hours. Stop the reaction by adding 20 μL Stop Solution to all wells and record Absorbance on a Pherastar plate reader. Percentage inhibition values were calculated from absorbance values, using the no compound (DMSO) and no enzyme control values as 0% and 100% inhibition, respectively. IC50 determination was performed with ExcelFit software (IDBS) using curve fit 205. Z' factors were determined for each plate tested and were all above 0.5. Method 2

Where a name gives a salt, the structure may show the parent alone.

Cdc7/ASK, sequence (O00311 whole entry): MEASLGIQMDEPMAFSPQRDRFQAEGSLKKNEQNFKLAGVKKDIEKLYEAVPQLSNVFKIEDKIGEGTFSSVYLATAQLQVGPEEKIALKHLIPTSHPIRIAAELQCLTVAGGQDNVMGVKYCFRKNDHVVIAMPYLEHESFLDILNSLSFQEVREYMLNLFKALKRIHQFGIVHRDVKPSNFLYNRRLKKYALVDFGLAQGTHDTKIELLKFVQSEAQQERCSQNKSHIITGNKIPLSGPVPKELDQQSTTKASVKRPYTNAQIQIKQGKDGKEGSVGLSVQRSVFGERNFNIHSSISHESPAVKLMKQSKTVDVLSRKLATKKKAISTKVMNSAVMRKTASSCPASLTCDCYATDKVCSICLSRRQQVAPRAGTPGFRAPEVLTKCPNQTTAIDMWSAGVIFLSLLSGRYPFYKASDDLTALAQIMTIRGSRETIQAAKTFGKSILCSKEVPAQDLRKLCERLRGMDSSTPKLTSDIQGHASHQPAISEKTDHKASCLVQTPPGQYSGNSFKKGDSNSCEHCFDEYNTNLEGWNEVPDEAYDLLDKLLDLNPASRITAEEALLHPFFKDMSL
Cdc7/ASK, sequence (Q9UBU7 whole entry partner): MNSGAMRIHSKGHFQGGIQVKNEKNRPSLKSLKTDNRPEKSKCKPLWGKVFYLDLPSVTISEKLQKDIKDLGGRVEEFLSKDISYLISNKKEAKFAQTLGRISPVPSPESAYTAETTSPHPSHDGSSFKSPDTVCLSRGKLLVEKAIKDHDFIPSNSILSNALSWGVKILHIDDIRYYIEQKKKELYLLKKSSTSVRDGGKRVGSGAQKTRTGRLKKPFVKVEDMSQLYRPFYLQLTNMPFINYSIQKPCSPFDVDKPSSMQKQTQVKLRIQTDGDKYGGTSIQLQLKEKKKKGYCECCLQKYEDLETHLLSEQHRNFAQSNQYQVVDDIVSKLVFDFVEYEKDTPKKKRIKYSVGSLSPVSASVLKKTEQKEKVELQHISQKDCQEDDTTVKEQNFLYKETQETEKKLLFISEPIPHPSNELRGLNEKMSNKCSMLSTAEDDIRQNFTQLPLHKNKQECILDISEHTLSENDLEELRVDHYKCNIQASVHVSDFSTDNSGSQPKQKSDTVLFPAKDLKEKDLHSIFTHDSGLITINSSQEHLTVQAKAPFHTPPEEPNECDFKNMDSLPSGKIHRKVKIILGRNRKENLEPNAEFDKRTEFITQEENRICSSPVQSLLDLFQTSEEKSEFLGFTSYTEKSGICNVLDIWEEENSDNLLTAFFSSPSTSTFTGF

As to `Cc1nc(C)c(C(=O)N2CCC(c3nc(-c4ccncc4)[nH]c(=O)c3Cl)CC2)s1` [Compound 54], the IC50 is 0.871 nM.

`Cn1cnc(C(=O)N2CCC(c3nc(-c4ccncc4)[nH]c(=O)c3Cl)CC2)c1` [Compound 55]: the IC50 is 2.09 nM.

On to `Cc1cc(C(=O)N2CCC(c3nc(-c4ccncc4)[nH]c(=O)c3Cl)CC2)n(C)n1` [Compound 56], for which the IC50 is 1.62 nM.

On to `O=C(c1cscn1)N1CCC(c2nc(-c3ccncc3)[nH]c(=O)c2Cl)CC1` [Compound 57], for which the IC50 was 3.47 nM.

For the molecule `Cc1cc(C(=O)N2CCC(c3nc(-c4ccncc4)[nH]c(=O)c3Cl)CC2)nn1C` [Compound 58], the IC50 is 0.912 nM.

`O=C(c1csnn1)N1CCC(c2nc(-c3ccncc3)[nH]c(=O)c2Cl)CC1` [Compound 59]: the IC50 is 2.57 nM.

`CC(=O)c1ccc(C(=O)N2CCC(c3nc(-c4ccncc4)[nH]c(=O)c3Cl)CC2)cc1` [Compound 60]: the IC50 was 1.91 nM.

On to `COc1ccc(S(N)(=O)=O)cc1C(=O)N1CCC(c2nc(-c3ccncc3)[nH]c(=O)c2Cl)CC1` [Compound 61], for which the IC50 is 6.17 nM.

In the case of `CC(=O)Nc1ccc(C(=O)N2CCC(c3nc(-c4ccncc4)[nH]c(=O)c3Cl)CC2)cc1` [Compound 62], the IC50 is 12 nM.

Consider `CC(C)Oc1ccc(C(=O)N2CCC(c3nc(-c4ccncc4)[nH]c(=O)c3Cl)CC2)cc1` [Compound 63], for which the IC50 is 3.24 nM.

For `C[C@@H](NC(=O)OC(C)(C)C)C(=O)N1CCC(c2nc(-c3ccncc3)[nH]c(=O)c2Cl)CC1` [Compound 64], the IC50 is 3.98 nM.

As for `CN(c1ccc(C(=O)N2CCC(c3nc(-c4ccncc4)[nH]c(=O)c3Cl)CC2)cc1)S(C)(=O)=O` [Compound 65], the IC50 was 5.89 nM.

Turning to `O=C(c1ccccc1Cl)N1CCC(c2nc(-c3ccncc3)[nH]c(=O)c2Cl)CC1` [Compound 66], the IC50 was 14.8 nM.

Take `Cc1ncsc1C(=O)N1CCC(c2nc(-c3ccncc3)[nH]c(=O)c2Cl)CC1` [Compound 67]: the IC50 was 1.55 nM.

As to `O=C(c1cn[nH]c1)N1CCC(c2nc(-c3ccncc3)[nH]c(=O)c2Cl)CC1` [Compound 68], the IC50 is 2.69 nM.

For the molecule `Cc1cc(C(=O)N2CCC(c3nc(-c4ccncc4)[nH]c(=O)c3Cl)CC2)no1` [Compound 69], the IC50 was 3.55 nM.

As to `O=C(C1CC1(F)F)N1CCC(c2nc(-c3ccncc3)[nH]c(=O)c2Cl)CC1` (stereo not drawn) [Compound 70], the IC50 is 15.8 nM.

In the case of `C[C@H](NC(=O)OC(C)(C)C)C(=O)N1CCC(c2nc(-c3ccncc3)[nH]c(=O)c2Cl)CC1` [Compound 71], the IC50 was 14.5 nM.

As for `Cc1cccc(C(=O)N2CCC(c3nc(-c4ccncc4)[nH]c(=O)c3Cl)CC2)c1` [Compound 72], the IC50 is 6.92 nM.

`CS(=O)(=O)Cc1ccc(C(=O)N2CCC(c3nc(-c4ccncc4)[nH]c(=O)c3Cl)CC2)cc1` [Compound 73]: the IC50 was 5.13 nM.

As for `CCCC(NC(=O)OC(C)(C)C)C(=O)N1CCC(c2nc(-c3ccncc3)[nH]c(=O)c2Cl)CC1` (stereo not drawn) [Compound 74], the IC50 is 245 nM.

Consider `CC(N)C(=O)N1CCC(c2nc(-c3ccncc3)[nH]c(=O)c2Cl)CC1` (stereo not drawn) [Compound 75], for which the IC50 was 9.12 nM.

In the case of `CN1CCC(c2nc(-c3ccncc3)[nH]c(=O)c2Cl)CC1` [Compound 79], the IC50 is 10.2 nM.

As for `O=c1[nH]c(-c2ccncc2)nc(N2CCN(Cc3cccc(Cl)c3)CC2)c1Cl` [Compound 80], the IC50 is 123 nM.

Turning to `CC(C)CCN1CCN(c2nc(-c3ccncc3)[nH]c(=O)c2Cl)CC1` [Compound 83], the IC50 is 166 nM.

Regarding `CC(C)N1CCN(c2nc(-c3ccncc3)[nH]c(=O)c2Cl)CC1` [Compound 86], the IC50 is 138 nM.

With `CC1CN(c2nc(-c3ccncc3)[nH]c(=O)c2Cl)CC(C)O1` (stereo not drawn) [Compound 92], the IC50 is 83.2 nM.

With `CC(C)CC1CN(c2nc(-c3ccncc3)[nH]c(=O)c2Cl)CCO1` (stereo not drawn) [Compound 93], the IC50 is 407 nM.

Consider `CCCC1COCCN1c1nc(-c2ccncc2)[nH]c(=O)c1Cl` (stereo not drawn) [Compound 95], for which the IC50 was 67.6 nM.

With `NC(=O)C1CN(c2nc(-c3ccncc3)[nH]c(=O)c2Cl)CCO1` (stereo not drawn) [Compound 96], the IC50 was 42.7 nM.

Take `CN(C)C(=O)C1CN(c2nc(-c3ccncc3)[nH]c(=O)c2Cl)CCO1` (stereo not drawn) [Compound 97]: the IC50 is 200 nM.

On to `CC(C)(C)OC(=O)NCC1CN(c2nc(-c3ccncc3)[nH]c(=O)c2Cl)CCO1` (stereo not drawn) [Compound 98], for which the IC50 was 85.1 nM.

With `COCCC1CN(c2nc(-c3ccncc3)[nH]c(=O)c2Cl)CCO1` (stereo not drawn) [Compound 99], the IC50 is 85.1 nM.

Consider `NC(=O)C1CCN(c2nc(-c3ccncc3)[nH]c(=O)c2Cl)CC1` [Compound 100], for which the IC50 is 12 nM.

Turning to `O=c1[nH]c(-c2ccncc2)nc(N2CCC(Cc3ccccc3)CC2)c1Cl` [Compound 102], the IC50 is 52.5 nM.

As for `CC1CN(c2nc(-c3ccncc3)[nH]c(=O)c2Cl)CC(C)N1` (stereo not drawn) [Compound 108], the IC50 is 174 nM.

On to `CN(C)C(=O)CN1CCN(c2nc(-c3ccncc3)[nH]c(=O)c2Cl)CC1` [Compound 110], for which the IC50 was 661 nM.

As to `COc1cccc(N2CCN(c3nc(-c4ccncc4)[nH]c(=O)c3Cl)CC2)c1` [Compound 113], the IC50 is 28.8 nM.

Consider `O=c1[nH]c(-c2ccncc2)nc(N2CCCNCC2)c1Cl` [Compound 115], for which the IC50 was 229 nM.

With `O=C1CCN(c2nc(-c3ccncc3)[nH]c(=O)c2Cl)CCN1` [Compound 117], the IC50 is 5.25 nM.

`NC(=O)[C@H]1CCCN1c1nc(-c2ccncc2)[nH]c(=O)c1Cl` [Compound 118]: the IC50 is 380 nM.

In the case of `O=CN1CCCN(c2nc(-c3ccncc3)[nH]c(=O)c2Cl)CC1` [Compound 119], the IC50 was 3.55 nM.

Consider `O=c1[nH]c(-c2ccncc2)nc(N2CCCN3CCC[C@@H]3C2)c1Cl` [Compound 120], for which the IC50 was 245 nM.

On to `O=c1[nH]c(-c2ccncc2)nc(N2CC(CO)C2)c1Cl` [Compound 124], for which the IC50 was 263 nM.

Consider `O=c1[nH]c(-c2ccncc2)nc(N2CCC3(COC3)C2)c1Cl` [Compound 126], for which the IC50 was 53.7 nM.

As to `O=c1[nH]c(-c2ccncc2)nc(N2CC[C@@H](F)C2)c1Cl` [Compound 133], the IC50 was 56.2 nM.

For `CC(C)(C)N1CCCN(c2nc(-c3ccncc3)[nH]c(=O)c2Cl)CC1` [Compound 137], the IC50 is 589 nM.

With `O=c1[nH]c(-c2ccncc2)nc(N2CCC(O)C2)c1Cl` (stereo not drawn) [Compound 138], the IC50 was 100 nM.

`O=C1CN(c2nc(-c3ccncc3)[nH]c(=O)c2Cl)CCCN1` [Compound 141]: the IC50 is 145 nM.

Take `N#CCN1CCN(c2nc(-c3ccncc3)[nH]c(=O)c2Cl)CC1` [Compound 148]: the IC50 was 33.9 nM.

Regarding `O=c1[nH]c(-c2ccncc2)nc(N2CCN3CC(F)(F)C[C@H]3C2)c1Cl` [Compound 149], the IC50 is 13.2 nM.

With `CC(C)(C)N1CCN(c2nc(-c3ccncc3)[nH]c(=O)c2Cl)CC1` [Compound 155], the IC50 is 977 nM.

On to `COC(=O)[C@@H]1CN(c2nc(-c3ccncc3)[nH]c(=O)c2Cl)CCN1C(=O)OC(C)(C)C` [Compound 162], for which the IC50 was 155 nM.

On to `COC(=O)[C@@H]1CN(c2nc(-c3ccncc3)[nH]c(=O)c2Cl)CCN1` [Compound 163, methyl (2S)-4-[5-chloro-6-oxo-2-(4-pyridyl)-1H-pyrimidin-4-yl]piperazine-2-carboxylate hydrochloride], for which the IC50 is 67.6 nM.
